Measurements: US20250281456A1, “METHODS OF TREATING CANCER BY INHIBITING BACTERIAL DNAK TO RESTORE ACTIVITIES OF ANTICANCER DRUGS” (University of Maryland, Baltimore, priority 2022, published 2025)
Where a SMILES comes first, the peptide text is derived from it. [ ]: non-standard residue; d: D form. Ac6c = NC1(C(=O)O)CCCCC1

Experiments:
Escherichia coli DnaK = Escherichia coli DnaK (Escherichia coli, UniProt P0A6Y8); conditions: previously demonstrated; cited from earlier work
[1] = test system: primary murine cancer cells constitutively expressing DnaK
HCT116 cells [2] = assay: Western blot of eM-DnaK entry into HCT116 cells after incubation with ARV-1502; type: cell-based, human; conditions: eM-DnaK incubated 3 hours with ARV-1502, added to cells 24 hours, then cisplatin 48 hours
Description: (§1) FIG. 17. A) Direct binding of eM-DnaK to ARV-1502 as determined by surface plasmon resonance (SPR). Association of ARV-1502 at different concentrations on 2274.9 response units of eM-DnaK immobilized on a CM5 biosensor chip proceeded at a flow rate of […] for 250 sec, followed by a 600 sec dissociation in HBS-EP.
Western blot was performed to verify the expression of DnaK in the mouse primary cancer cells, in the internalization of the exogenous DnaKs and to validate DnaK binding with ARV-1502. […] After 72 h since eM-DnaK treatment, cell monolayers were washed in cold PBS, trypsinized and resuspended in RIPA lysis buffer (Sigma-Aldrich, St. Louis, MO) in the presence of protease inhibitors (Sigma-Aldrich, St. Louis, MO). The protein concentration was measured by the Bradford assay (Bio-Rad Laboratories, Hercules, CA). Thirty micrograms of protein were resolved by SDS/PAGE, transferred to a polyvinylidene difluoride (PVDF) membrane using trans-blot turbo transfer system (Bio-Rad Laboratories, Hercules, CA), blocked in 5% nonfat dried milk in Tris-Buffered Saline (TBS) and probed overnight with either a mouse mAb against the V5 tag (#R960-25, Thermo Fisher Scientific, Walthman, MA) to detect the presence of eM-DnaK or a mouse mAb against […] (8H10D10) (#3700, Cell Signaling Technology, Danvers, MA). […]

human Hsp70 = human Hsp70 (Homo sapiens, UniProt P0DMV8); conditions: previously demonstrated; cited from earlier work
Sequence of human Hsp70 (P0DMV8 whole entry): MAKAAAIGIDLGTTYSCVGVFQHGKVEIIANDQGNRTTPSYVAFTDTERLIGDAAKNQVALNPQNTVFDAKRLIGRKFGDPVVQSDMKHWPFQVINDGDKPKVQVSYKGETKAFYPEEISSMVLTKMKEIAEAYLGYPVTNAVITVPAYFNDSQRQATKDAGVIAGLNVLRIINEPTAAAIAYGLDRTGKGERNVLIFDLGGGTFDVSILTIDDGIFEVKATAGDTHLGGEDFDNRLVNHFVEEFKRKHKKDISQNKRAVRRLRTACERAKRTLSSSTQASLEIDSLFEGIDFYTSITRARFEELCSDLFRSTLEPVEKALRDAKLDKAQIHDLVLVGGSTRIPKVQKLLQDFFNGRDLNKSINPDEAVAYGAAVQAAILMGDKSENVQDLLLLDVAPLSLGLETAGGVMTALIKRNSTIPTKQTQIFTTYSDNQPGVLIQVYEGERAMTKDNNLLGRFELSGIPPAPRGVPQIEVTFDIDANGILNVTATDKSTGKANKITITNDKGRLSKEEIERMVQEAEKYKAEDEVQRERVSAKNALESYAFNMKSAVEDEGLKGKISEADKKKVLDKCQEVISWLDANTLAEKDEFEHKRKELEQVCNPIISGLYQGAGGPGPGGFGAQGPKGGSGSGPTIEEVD

AGS cells = assay: cells
Description: (§2) FIG. 11. […] Parallel wells of untreated cells were used as negative control. Cell viability was assessed by using the trypan blue assay. Percentage of alive cells for each treatment are calculated as percentage using the untreated cell as reference. […] Statistical differences were tested using Student's t test. All statistical tests were two sided. p=***<0.001, **<0.01, *<0.05, ns=not significant.
as §2, with “14.” for “11.”, “p=*<0.05,” for “p=***<0.001,”, “***<0.001.” for “*<0.05, ns=not significant.”
(§3) To determine the effects of eM and eF-DnaKs on HCT116 and AGS cells lines treated with different anti-cancer drugs, cells were plated 200,000 cells/well in 6-wells plates. After 24 h, both eM-DnaK and eF-DnaK were added to the cultures at a concentration of 10 ug/ml. […] Parallel cultures of untreated cells were the negative controls. […] After 48 h of treatment with the anti-cancer drugs, cell monolayers were washed in PBS, trypsinized and cell viability was measured using the trypan blue assay. The trypan blue exclusion assay allows for a direct identification and enumeration of live (unstained) and dead (blue) cells in the given population.
(§4) More in detail, we pre-treated both exogenous DnaKs with ARV-1502 (25 μg/ml) before adding them to the culture of HCT116 or AGS cells. After 3 h of incubation the complex was added to the culture. After 24 h the cells were treated with the anti-cancer drugs and then subjected to count with trypan blue as previously described. Parallel cultures of cells treated with the drugs and DnaKs not complexed with ARV-1502 were used as control.

HCT116 cells [3] = assay: cells
Description: as §2
as §2, with “14.” for “11.”, “p=*<0.05,” for “p=***<0.001,”, “***<0.001.” for “*<0.05, ns=not significant.”
as §3, §4

[4] = target: eM-DnaK (Mycoplasma fermentans DnaK); assay: Surface plasmon resonance (SPR) binding of ARV-1502 to immobilized eM-DnaK; conditions: 2274.9 RU eM-DnaK on CM5 chip, HBS-EP, 25° C., preliminary kinetic analysis
Description: as §1
Surface plasmon resonance (SPR) binding studies of DnaK and ARV-1502 were performed at 25° C. on a BIAcore T100 System (BIAcore, Inc., Piscataway, NY). We used as assay buffer HBS-EP, containing 10 mM HEPES, 150 mM NaCl, 0.05% surfactant P20, pH 7.4, 3 mM EDTA. DnaK (2274.9 RUs) was immobilized on CM5 sensor chips using the amine-coupling chemistry recommended by the manufacturer. Analytes were introduced into the flow cells at 35 μl/min in the running buffer. Association and dissociation were assessed for 250 seconds and 600 seconds. Resonance signals were corrected for nonspecific binding by subtracting the background of the control flow-cell. After each analysis, the sensor chip surfaces were regenerated with 10 mM glycine solution (pH 2.0) with MgCl 1M and equilibrated with the buffer before the next injection.

Sequence of Escherichia coli DnaK (P0A6Y8 whole entry): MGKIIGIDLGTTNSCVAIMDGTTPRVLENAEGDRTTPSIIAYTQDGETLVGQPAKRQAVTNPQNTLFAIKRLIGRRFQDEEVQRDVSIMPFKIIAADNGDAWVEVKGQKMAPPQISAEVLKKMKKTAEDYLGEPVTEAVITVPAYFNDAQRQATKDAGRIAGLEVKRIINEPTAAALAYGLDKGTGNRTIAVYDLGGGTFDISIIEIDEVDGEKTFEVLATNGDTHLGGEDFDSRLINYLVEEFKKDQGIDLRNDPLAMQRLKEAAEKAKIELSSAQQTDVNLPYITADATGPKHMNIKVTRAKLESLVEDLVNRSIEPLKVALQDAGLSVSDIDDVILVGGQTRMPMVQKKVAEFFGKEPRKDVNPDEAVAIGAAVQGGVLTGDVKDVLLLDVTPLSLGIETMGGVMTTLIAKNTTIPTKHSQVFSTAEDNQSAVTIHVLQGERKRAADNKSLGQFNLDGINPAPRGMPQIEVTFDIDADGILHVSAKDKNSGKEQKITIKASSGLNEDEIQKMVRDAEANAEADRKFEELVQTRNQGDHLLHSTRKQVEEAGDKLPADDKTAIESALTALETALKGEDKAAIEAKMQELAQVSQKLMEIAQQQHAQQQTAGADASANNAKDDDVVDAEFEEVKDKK

CC(C)C[C@H](NC(=O)[C@H](Cc1ccc(O)cc1)NC(=O)[C@@H]1CCCN1C(=O)[C@H](CCCNC(=N)N)NC(=O)[C@@H]1CCCN1C(=O)[C@H](CCCCN)NC(=O)[C@H](CC(=O)O)NC(=O)[C@@H]1CCCN1C(=O)[C@H](CCCNC(=N)N)NC(=O)C1(N)CCCCC1)C(=O)N1CCC[C@H]1C(=O)N[C@@H](CCCNC(=N)N)C(=O)N1CCC[C@H]1C(=O)N[C@@H](CCCNC(=N)N)C(=O)N1CCC[C@H]1C(=O)N1CCC[C@H]1C(=O)N[C@@H](CCCNC(=N)N)C(=O)N1CCC[C@H]1C(=O)N[C@H](C(=O)N[C@@H](CCCNC(=N)N)C(N)=O)C(C)C [ARV-1502] (H-[Ac6c]RPDKPRPYLPRPRPPRPVR-NH2; N-terminus and C-terminus assumed)
DnaK binding and ATPase activity (Escherichia coli DnaK): bind the Escherichia coli DnaK substrate-binding domain and to reduce its ATPase activity | inhibitory effect ([1]; ARV-1502 alone): 11% | improved anti-cancer effect ([1]; ARV-1502 with cisplatin or 5FU versus drug alone, for both drugs): 25% | eM-DnaK entry into HCT116 cells (HCT116 cells [2]): does not prevent eM-DnaK entry into HCT116 cells | interaction with human Hsp70 (human Hsp70): without interacting with human Hsp70 | reduction in cell viability (AGS cells; ARV-1502 alone, on average (data not shown)): 5-8% | restoration of anti-cancer activity of cisplatin and 5FU (AGS cells; in the presence of eF-DnaK pre-treated with ARV-1502 (25 μg/ml)): able to restore the drugs' anti-cancer activity | restoration of anti-cancer activity of cisplatin and 5FU (AGS cells; in the presence of eM-DnaK pre-treated with ARV-1502 (25 μg/ml)): restoration of the original anti-cancer activity of each drug | reduction in cell viability (HCT116 cells [3]; HCT116, ARV-1502 alone, on average (data not shown)): 5-8% | restoration of anti-cancer activity of cisplatin and 5FU (HCT116 cells [3]; HCT116, in the presence of eF-DnaK pre-treated with ARV-1502 (25 μg/ml)): able to restore the drugs' anti-cancer activity | restoration of anti-cancer activity of cisplatin and 5FU (HCT116 cells [3]; HCT116, in the presence of eM-DnaK pre-treated with ARV-1502 (25 μg/ml)): restoration of the original anti-cancer activity of each drug | Kd [4]: 1.9 µM
